Experimental data as given in article PMC12040169 (PLOS Biology, 2025).

experiment: in vitro; details: human, hela cells, % viability

Compound | viability at 28.5 h, 10 µM [%]
O=C(CSCc1c(Cl)cccc1Cl)NN1C(=O)c2ccccc2C1=O [CBK267800] | 101
CCc1nc2c(OCC(=O)c3ccc(Cl)cc3Cl)cccn2c1N(C)C(=O)C1CC1 [CBK147712] | 89.7
Oc1cc2cccnc2nc1-c1cccc(C(F)(F)F)c1 [CBK073704] | 79
Cc1cc(=O)c(O)c(CN2CCC(C(=O)O)CC2)o1 [CBK286843] | 87.6
O=C(O)c1nccnc1C(=O)NCCc1c[nH]c2ccc(Cl)cc12 [CBK286630] | 93.8
COC(=O)c1sc2ncccc2c1NS(=O)(=O)c1cc(Br)ccc1OC [CBK049971] | 91.9
CC(=O)Nc1ccc(OCC(O)Cn2ncc3ccccc3c2=O)cc1 (centres unmarked) [CBK305567] | 105
CCCC/C=C/c1nccnc1NCCc1ccncc1 [CBK037370] | 99.9
CCNC(=O)C1(Cc2ccccc2-c2cccnc2)CCOCC1 [CBK285218] | 103
Cc1nc2cc(/N=C/c3c[nH]c4ccccc34)ccc2n1C [CBK262085] | 88.8
O=C1CC(C(=O)Nc2ccccc2)n2cnnc2N1 (centres unmarked) [CBK287980] | 112
Cc1cc(N2C(=O)CC(N3CCN(c4ccc(C(=O)c5cccs5)cc4)CC3)C2=O)no1 (centres unmarked) [CBK268701] | 84.4
Fc1ccc(CN2CCC(c3nnc4n3CCCCC4)CC2)cc1F [CBK283356] | 86.3
CC(Sc1ccccc1)C(=O)NCCN1CCOCC1 (centres unmarked) [CBK269332] | 95.9
COc1ccc(CCNC(=S)NN2CCN(C)CC2)cc1OC [CBK266884] | 93.2
O=C(Cc1cc(F)c(F)c(F)c1)Nc1cnccn1 [CBK161764] | 90.1
O=C(c1cc(F)cc(F)c1)N1CC[C@@H](c2ccccc2)[C@H](O)C1 [CBK283715] | 79.1
Cc1ccccc1-c1nnc2n1CCCN2 [CBK200089] | 115
O=c1c2c3c(sc2nc(SCc2nc4ccccc4[nH]2)n1Cc1ccco1)CCC3 [CBK268306] | 104
CCC(CC)C(=O)Nc1ccc([C@@H](O)[C@H]2COCC(=O)N2Cc2ccc(OC)cc2)cc1 [CBK289677] | 102
O=C(Nc1ccccc1[N+](=O)[O-])C1Cc2ccccc2CN1S(=O)(=O)c1ccc(F)cc1 (centres unmarked) [CBK266129] | 102
COc1ccccc1-c1nccnc1NCC(C)O (centres unmarked) [CBK037637] | 90.4

Compound | viability at 28.5 h, 10 µM [%]
Cn1cc2c(n1)[C@H]1CN(C(=O)c3cc(C(F)(F)F)nn3C)C[C@H]1C2 [CBK283400] | 93.8
CN(CC(=O)Nc1ccc(Cl)c(C(F)(F)F)c1)C(=O)c1cc(O)nc2ccccc12 [CBK295304] | 87.8
O=C(Cn1nnc(-c2ccccc2Cl)n1)N/N=C/c1cn(Cc2ccc(Cl)cc2)c2ccccc12 [CBK262333] | 107
OCc1ccc(-c2cc(NCc3cccs3)n3nccc3n2)cc1 [CBK037046] | 106
O=C(O)CCCCCNS(=O)(=O)c1ccc(Cl)cc1 [CBK261940] | 81.4
O=C(O)c1ccc(CNC(=O)c2ccc(Cl)c(S(=O)(=O)N3CCCC3)c2)cc1 [CBK297096] | 95.7
Cc1nc(CCCn2cnc3cnccc3c2=O)sc1C [CBK306610] | 102
CC(=O)Nc1c(O)nc(SCC(=O)Nc2ccc(C(C)=O)cc2)[nH]c1=O [CBK268527] | 106
O=C(Nc1ccc2nsnc2c1NC(=O)c1ccc2nsnc2c1)c1ccc2nsnc2c1 [CBK264309] | 95.9
Cc1cc(C)n(C)c(=O)c1C(=O)NC(C)Cc1ccccn1 (centres unmarked) [CBK283063] | 105
O=C(Cc1c[nH]c2ccccc12)N1CCC2(CCCN(C(=O)c3cccnc3)C2)C1 (centres unmarked) [CBK131604] | 103
O=C(Cn1cnc2c(Cl)cc(Cl)cc2c1=O)N1CCCCCC1 [CBK305874] | 92
O=C(CC1NCCNC1=O)Nc1cccc(Cl)c1 (centres unmarked) [CBK266454] | 105
Cc1ccc(S(=O)(=O)N/C(=N/C(C)C(=O)O)c2ccccc2)cc1 (centres unmarked) [CBK263099] | 92.2
CCCCc1ccc(C(=O)CSc2nc(N)c(C#N)c(-c3ccc(O)cc3)c2C#N)cc1 [CBK261268] | 93.4
N#C/C(=C\c1ccc(O)cc1)c1nc(-c2ccc3c(c2)OCO3)cs1 [CBK262370] | 96.8
COc1ccc(Cl)cc1NC(=O)CN(c1cc([N+](=O)[O-])ccc1C)S(C)(=O)=O [CBK266394] | 114
CC(=O)c1ccccc1NC(C#N)c1ccccc1 (centres unmarked) [CBK057758] | 99.6
NC(=O)c1ccc(-c2cc(Nc3ccc(CCO)cc3)ncn2)cc1 [CBK090773] | 102
Cn1cc([C@H]2C[C@@H](O)[C@@H](CO)O2)c(=O)[nH]c1=O [CBK201171] | 88.9
Cc1nn(Cc2cccc(C(N)=O)c2)c(C)c1Br [CBK022255] | 86.9
O=C(Nc1ccc(N2CCN(Cc3ccccc3)CC2)cc1)c1ccc(-c2ccccc2)cc1 [CBK268622] | 109

Compound | viability at 28.5 h, 10 µM [%]
COc1ccc(CCN2C(=O)N[C@@H](CCC(=O)NC3CC3)C2=O)cc1 [CBK288001] | 109
Nc1cccc2c1C(=O)N(c1ccccc1C(=O)O)C2=O [CBK287220] | 94
Cc1cc(COc2nccnc2N2CCN(Cc3ccc([N+](=O)[O-])cc3)CC2)no1 [CBK084189] | 92
CN(C)c1nc(Cl)nc(N(C)C#N)n1 [CBK025922] | 87.7
COc1ccccc1CNC(=O)c1ccc2nc(C)c(N(C)C(=O)c3cccs3)n2c1 [CBK146546] | 86.9
CC(C)Nc1cc(OCc2cccnc2)ncn1 [CBK115883] | 91.3
O=C(COc1ccccc1)N1CCN(Cc2ccncc2)CC1 [CBK072595] | 94.6
COc1cc(CN2CCN(Cc3cccnc3)CC2)cc(OC)c1O [CBK264274G] | 102
CC1CCN(CC(O)c2ccc3c(c2)CCN3C(=O)C2CC2)CC1 (centres unmarked) [CBK282927] | 102
O=C(O)c1sc2cc(C(F)(F)F)cnc2c1-c1cccs1 [CBK089890] | 114
Cc1ccc2cc(S(=O)(=O)NCCC(=O)O)ccc2c1 [CBK267569] | 96.5
CCc1ccc2nc3c(cc2c1)CNCCO3 [CBK281940] | 91.6
Cc1sc(-c2ccc(C(F)(F)F)cc2)nc1COc1cncc(N2CCNCC2)n1 [CBK172383G] | 85.6
O=C(NCCOc1ccccc1F)C1CC(=O)N(Cc2ccccn2)C1 (centres unmarked) [CBK304632] | 104
Nc1c(-c2ccc3c(c2)CCO3)cnc2ncccc12 [CBK083678] | 96
CCN1C(=O)c2ccccc2C(=O)[C@@]2(C)CN(C(C)C)C[C@@H]12 [CBK283480] | 109
O=C(NC(C(=O)N/N=C/c1ccccc1O)c1n[nH]c(=O)c2ccccc12)c1ccccc1 (centres unmarked) [CBK261117] | 113
NS(=O)(=O)c1ccc(CCNC2=CC(=O)CC(c3ccco3)C2)cc1 (centres unmarked) [CBK265852] | 97
CC(C)(C)C(=O)N1CC(n2nc(-c3ccccc3)ccc2=O)C1 [CBK284623] | 92.1
Cc1cc(C)nc(NCCC(=O)O)n1 [CBK270154] | 89.1

same assay, conditions: human, hela cells, % viability, bulk resorufin, single well

Compound | viability at 28.5 h, 10 µM [%]
Oc1ccc(Br)cc1C(c1c(O)nc(S)nc1O)c1c(O)nc(S)nc1O [CBK265367] | 103
